# Test results as given in US20090227619A1, “Harmine derivatives, intermediates used in their preparations, preparation processes and use therefo” (priority 2003, published 2009).
# Read-outs that look alike come from different tables or passages of the source.
# What was measured:
# Bel-7402 = experiment: In vitro cytotoxicity, IC50 by MTT method, Bel-7402; format: cell-based
# Protocol: (§1) Culture medium powder RPMI1640 was dissolved in a proper amount of tri-distilled water according to the instruction of the product. […] It was the basic culture solution. The complete culture solution was added with FBS having a final concentration of 10%, 100 U/ml penicillin and 100 µg/ml streptomycin. The solution was fully stirred by a magnetic blender, and the pH of the solution was adjusted to 6.8-7.0. The volume was kept constant. After being filtered and disinfected, the solution was kept into several containers which were sealed and stored at 4° C.
# (§2) The cells were placed in a culture dish followed by the addition of complete culture liquid RPMI1640 and then cultured in a incubator comprising 5% CO2 at 37° C. In the exponential growth phase, the cells grew vigorously. If the culture liquid became yellow, the liquid should be replaced instantly.
# (§3) The cells, at a concentration of 10^5/ml, were inoculated at a 96-pore culture plate. In each pore, 100 μl cells were inoculated. The cells were placed in a CO2 incubator until the cells were in the logarithmic growth phase. The samples to be tested were added according to the preset concentration gradient. For each gradient, the test was conducted at least three times. An equivalent amount of solvent for dissolving the samples was added in the control group. After 48 h of culture, each pore was added 20 μl MTT (5 mg/ml). The cells were cultured at 37° C. for 4 h. After the supernatant was carefully removed, 100 μl DMSO was added in each pore. The plate was agitated for about 10 minutes such that the precipitates were dissolved. After that, OD value was identified with a Microplate Reader at the wavelength of 490 nm. The survival rate of the cells at various concentrations was calculated according to the following formula:
# (§4) Survival rate %=average OD value of the sample group/average OD value of the control group×100%
# (§5) Plots of log survival rate of the cells vs. concentration of the medicament were constructed, and the IC50 value of each sample was calculated according to graphing methods.
# PLA-801 = experiment: In vitro cytotoxicity, IC50 by MTT method, PLA-801; format: cell-based
# Protocol: as §1, §2, §3, §4, §5
# NIH3T3 = experiment: In vitro cytotoxicity, IC50 by MTT method, NIH3T3; format: cell-based
# Protocol: as §1, §2, §3, §4, §5
# Hela = experiment: In vitro cytotoxicity, IC50 by MTT method, Hela; format: cell-based
# Protocol: as §1, §2, §3, §4, §5
# Lovo = experiment: In vitro cytotoxicity, IC50 by MTT method, Lovo; format: cell-based
# Protocol: as §1, §2, §3, §4, §5
# BGC-823 = experiment: In vitro cytotoxicity, IC50 by MTT method, BGC-823; format: cell-based
# Protocol: as §1, §2, §3, §4, §5
# HepG2 = experiment: In vitro cytotoxicity, IC50 by MTT method, HepG2; format: cell-based, human
# Protocol: as §1, §2, §3, §4, §5
# S180 sarcoma = conditions: S180 sarcoma; for Body weight of the animals, beginning, First time / Body weight of the animals, end, First time / Inhibition rate, First time / Weight of the tumor X ± SD, First time: ip × 10qd
# Source text: There was one group of 8 to 10 mice C57BL/6 and Kunming mice for the anti-tumor tests and two groups of mice for negative control.
# (3) Sources of tumors: Lewis lung cancer cells and S180 sarcoma in mice, which were sub-cultured and maintained by Pharmacological Center of Shanghai Pharmaceutical Industrial Research Institute.
# All samples were weighed and added a small amount of Tween-80 to facilitate dissolution during the experiment, and then 0.5% CMC-Na solution was gradually added to achieve the desired concentration. The volume for experiment was 0.5 ml/20 g mouse.
# The medicaments were intraperitoneally administered once a day continuously for 10 days.
# For the negative control group, a vehicle of the same volume was intraperitoneally administered once a day continuously for 10 days. For the positive control group, CTX was administered in the dosage of 30 mg/kg once a day continuously for 7 days.
# In vivo anti-tumor subcutaneous vaccination in the axilla was employed. Wildly grown tumor source was taken under sterile conditions to form a cell suspension of about 1×10^7 ml by homogenization method. For a corresponding mouse host, the suspension was injected in the axilla in an amount of 0.2 ml/mouse. The next day, the medicaments were administered according to the design of the tests. About three weeks later, all the groups of animals were executed. The tumors were taken from the animals and weighed. The inhibition rate of tumors was calculated according to the following formula:
# T: average tumor weight of treated group; C: average tumor weight of negative control group.
# Lewis lung cancer = conditions: Lewis lung cancer;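 further: mice implanted subcutaneously in the axilla with Lewis lung tumor cells, treated starting the following day, killed roughly three weeks after implantation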
# [1] = Bel7402 cell strain, read-out: IC50 Bel7402
# [2] = PLA-801 cell strain, read-out: IC50 PLA-801
# [3] = NIH3T3 cell strain, read-out: IC50 NIH3T3
# [4] = Hela cell strain, read-out: IC50 Hela
# [5] = Lovo cell strain, read-out: IC50 Lovo
# [6] = BGC823 cell strain, read-out: IC50 BGC823
# [7] = HepG2 cell strain, read-out: IC50 HepG2
# [8] = Homo sapiens, Bel-7402, BeI7402, MTT, read-out: IC50
# [9] = Mus musculus, NIH3T3, MTT, read-out: IC50
# [10] = Homo sapiens, Hela, MTT, read-out: IC50
# [11] = Homo sapiens, Lovo, MTT, read-out: IC50
# [12] = Homo sapiens, BGC-823, BGC823, MTT, read-out: IC50
# [13] = Homo sapiens, HepG2, MTT, read-out: IC50
# [14] = Dosage 50, ip × 10qd, first time
# [15] = Dosage 100, ip × 10qd, first time
compound,measurement,setting,value
"2,9-dibenzyl-β-carbolinium bromate [Compound 89]",IC50,Bel-7402; [1],70 µM
same,IC50,PLA-801; [2],100 µM
same,IC50,NIH3T3; [3],30 µM
same,IC50,Hela; [4],20 µM
same,IC50,Lovo; [5],30 µM
same,IC50,BGC-823; [6],60 µM
same,IC50,HepG2; [7],30 µM
"2,9-diethyl-β-carbolinium bromate [Compound 88]",IC50,Bel-7402; [1],1310 µM
same,IC50,PLA-801; [2],1200 µM
same,IC50,NIH3T3; [3],630 µM
same,IC50,Hela; [4],860 µM
same,IC50,Lovo; [5],2150 µM
same,IC50,BGC-823; [6],1310 µM
same,IC50,HepG2; [7],430 µM
"2,9-dimethyl-β-carbolinium bromate [Compound 87]",IC50,Bel-7402; [1],370 µM
same,IC50,PLA-801; [2],280 µM
same,IC50,NIH3T3; [3],380 µM
same,IC50,Hela; [4],70 µM
same,IC50,Lovo; [5],1820 µM
same,IC50,BGC-823; [6],260 µM
same,IC50,HepG2; [7],200 µM
"COc1ccc2c3ccnc(C)c3n(CCCc3ccccc3)c2c1 [Compound 8, 9-phenylpropyl-7-methoxy-1-methyl-β-carboline]",IC50,Bel-7402; [8],40 µM
same,IC50,"PLA-801; PLA-801, MTT, read-out: IC50",50 µM
same,IC50,NIH3T3; [9],20 µM
same,IC50,Hela; [10],20 µM
same,IC50,Lovo; [11],30 µM
same,IC50,BGC-823; [12],50 µM
same,IC50,HepG2; [13],40 µM
"COC(=O)c1cc2c(cn1)[nH]c1ccccc12 [Compound 9, methyl β-carboline-3-carboxylate]",IC50,"Bel-7402; Homo sapiens, Bel-7402",300 µM
same,IC50,PLA-801,310 µM
same,IC50,"NIH3T3; Mus musculus, NIH3T3",200 µM
same,IC50,"Hela; Homo sapiens, HeLa",100 µM
same,IC50,"Lovo; Homo sapiens, LoVo",170 µM
same,IC50,"BGC-823; Homo sapiens, BGC-823",290 µM
same,IC50,"HepG2; Homo sapiens, HepG2",2510 µM
"CCOC(=O)c1cc2c(cn1)[nH]c1ccccc12 [Compound 10, ethyl β-carboline-3-carboxylate]","Body weight of the animals, beginning, First time",S180 sarcoma; Dosage 50 (mg/ml),20.0 g
same,"Body weight of the animals, end, First time",S180 sarcoma; Dosage 50 (mg/ml),26.4 g
same,"Inhibition rate, First time",S180 sarcoma; Dosage 50 (mg/ml),30.92%
same,"Weight of the tumor X ± SD, First time",S180 sarcoma; Dosage 50 (mg/ml),1.81 ± 0.20 g
same,"Body weight of the animals, beginning, First time",S180 sarcoma; Dosage 100 (mg/ml),20.1 g
same,"Body weight of the animals, end, First time",S180 sarcoma; Dosage 100 (mg/ml),25.5 g
same,"Inhibition rate, First time",S180 sarcoma; Dosage 100 (mg/ml),40.46%
same,"Weight of the tumor X ± SD, First time",S180 sarcoma; Dosage 100 (mg/ml),1.56 ± 0.17 g
same,Inhibition rate (%) S180 sarcomata,"S180 sarcoma; comparison table 43, in vivo",40.46%
same,IC50,"Bel-7402; Homo sapiens, Bel-7402",2910 µM
same,"Body weight of the animals, beginning, First time",Lewis lung cancer; [14],20.1 g
same,"Inhibition rate, First time",Lewis lung cancer; [14],32.92%
same,"Weight of the tumor X ± SD, First time",Lewis lung cancer; [14],1.63 ± 0.16 g
same,"Body weight of the animals, end, First time","Lewis lung cancer; Dosage 100 (mg/ml), ip × 10qd, first time",23.6 g
same,"Body weight of the animals, beginning, First time",Lewis lung cancer; [15],20.3 g
same,"Inhibition rate, First time",Lewis lung cancer; [15],41.98%
same,"Weight of the tumor X ± SD, First time",Lewis lung cancer; [15],1.41 ± 0.21 g
same,Inhibition rate (%) Lewis cancer,"Lewis lung cancer; comparison table 43, in vivo",41.98%
same,IC50,PLA-801,280 µM
same,IC50,"NIH3T3; Mus musculus, NIH3T3",80 µM
same,IC50,"Hela; Homo sapiens, HeLa",60 µM
same,IC50,"Lovo; Homo sapiens, LoVo",1010 µM
same,IC50,"BGC-823; Homo sapiens, BGC-823",1280 µM
same,IC50,"HepG2; Homo sapiens, HepG2",1250 µM
"CCCCOC(=O)c1cc2c(cn1)[nH]c1ccccc12 [Compound 18, butyl β-carboline-3-carboxylate]",IC50,Bel-7402; [8],310 µM
same,IC50,"PLA-801; PLA-801, MTT, read-out: IC50",680 µM
same,IC50,NIH3T3; [9],150 µM
same,IC50,Hela; [10],290 µM
same,IC50,Lovo; [11],100 µM
same,IC50,BGC-823; [12],390 µM
same,IC50,HepG2; [13],270 µM
"NNC(=O)c1cc2c(cn1)[nH]c1ccccc12 [Compound 20, β-carboline-3-carbohydrazine]",IC50,"Bel-7402; BeI7402, MTT, read-out: IC50",1430 µM
same,IC50,"PLA-801; PLA-801, MTT, read-out: IC50",740 µM
same,IC50,"NIH3T3; NIH3T3, MTT, read-out: IC50",320 µM
same,IC50,"Hela; Hela, MTT, read-out: IC50",400 µM
same,IC50,"Lovo; Lovo, MTT, read-out: IC50",310 µM
same,IC50,"BGC-823; BGC823, MTT, read-out: IC50",740 µM
same,IC50,"HepG2; HepG2, MTT, read-out: IC50",360 µM
